Data taken from patent US20080139612A1, “Chemical Compound” (ASTRAZENECA AB, priority 2006, published 2008).

Columns and labels:
[1] = test system: T-cells, chemotaxis in response to MIP-1β (CCL-4); assay: Inhibition of chemotaxis of T-cells in response to MIP-1β (CCL-4); assay type: cell-based; conditions: human allo-reactive T cell line; 1 nM MIP-1β; 1 hour at 37° C.; read-out: IC50, concentration which inhibited 50% of the chemotactic response
Protocol: The ability of the compound of the present invention to inhibit the chemotaxis of T-cells in response to MIP-1β (CCL-4) was measured:
An allo-reactive T cell line was generated by exposure of human peripheral blood mononuclear cells (PBMCs) to L-DR4/B7 fibroblasts (immobilised with glutaraldehyde fixation and irradiation) and subsequent expansion with IL-2 and anti-CD3. When required, the cells were grown and re-challenged with irradiated HLA-DR4+ve PBMCs and expanded with anti-CD3 and IL-2. The cells were used between day 21 and 34. 1 nM of MIP-1β plus varying concentrations of the CCR5 antagonist [^3H]1-{(3R)-3-(3,5-difluorophenyl)-3-[4-(methylsulfonyl)phenyl]propyl}-4-(2-{[4-(methylsulfonyl)phenyl]sulfonyl}ethyl)piperidine were placed in assay buffer in the bottom of a 96-well Neuroprobe Chemo TX chemotaxis plate and cells that had been loaded with a fluorescent dye and pre-incubated with varying concentration of the CCR5 antagonist were pipetted onto the surface of a 5 micron pore size membrane according to the manufacturers specifications. After 1 hour of incubation with the compound of the invention at 37° C., the unmigrated cells were washed off the surface of the plate with PBS and the […] by reading on a 96-well fluorescent plate reader. […]

CCR5 = molecular target: T1, CCR5 (Homo sapiens, UniProt P51681); assay: Displacement of radio-labelled CCR5 antagonist from Allo-T cell membranes (inhibition of MIP-1β binding); conditions: membranes of human allo-reactive T cells; 2 nM [3H] CCR5 antagonist; 2 hours at room temperature; read-out: IC50, concentration which displaced 50% of bound radio-labelled CCR5 antagonist
T1 construct: After 21 to 34 days culture, the membranes were prepared from the cells; endogenous in cells; host or cells: Allo-T cells (allo-reactive T cell line from human PBMCs), membrane preparation
T1 sequence (P51681 whole entry): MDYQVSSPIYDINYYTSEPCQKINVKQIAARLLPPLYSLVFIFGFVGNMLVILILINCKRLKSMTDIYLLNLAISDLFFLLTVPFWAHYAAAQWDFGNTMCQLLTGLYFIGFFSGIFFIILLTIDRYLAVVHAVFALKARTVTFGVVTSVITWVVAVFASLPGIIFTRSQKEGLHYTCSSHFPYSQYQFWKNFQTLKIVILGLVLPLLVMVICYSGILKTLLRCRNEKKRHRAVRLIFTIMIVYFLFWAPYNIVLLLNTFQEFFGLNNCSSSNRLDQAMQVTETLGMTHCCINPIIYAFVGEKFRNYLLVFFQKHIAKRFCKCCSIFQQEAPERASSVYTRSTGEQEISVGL
Protocol: The ability of the compound of the present invention to inhibit the binding of MIP-1β (CCL-4) was measured:
An allo-reactive T cell line was generated by exposure of human peripheral blood mononuclear cells (PBMCs) to L-DR4/B7 fibroblasts (immobilised with glutaraldehyde fixation and irradiation) and subsequent expansion with anti-CD3 and IL-2 for 14 days. The resultant Allo-T cells were frozen. When required, the cells were grown and re-challenged with irradiated HLA-DR4+ve PBMCs and expanded with anti-CD3 and IL-2. After 21 to 34 days culture, the membranes were prepared from the cells. These membranes were incubated in 96-well plates with 2 nM of the radio-labelled CCR5 antagonist [^3H]1-{(3R)-3-(3,5-difluorophenyl)-3-[4-(methylsulfonyl)phenyl]propyl}-4-(2-{[4-(methylsulfonyl)phenyl]sulfonyl}ethyl)piperidine and various concentrations of the compound of the invention for 2 hours at room temperature. The plates were then harvested onto GF/B filter plates (which had been pre-soaked soaked in 0.3% PEI containing 0.2% BSA for 10 min at 4° C.) using a Packard Unifilter harvester using 10 wash steps. The amount of [^3H]1-{(3R)-3-(3,5-difluorophenyl)-3-[4-(methylsulfonyl)phenyl]propyl}-4-(2-{[4-(methylsulfonyl)phenyl]sulfonyl}ethyl)piperidine retained on the filter plates was determined by scintillation counting. […]

IC50 [1] [nM]	IC50 (CCR5) [nM]	SMILES
2.1	3.4	Cc1nnc(C(C)(F)F)n1C1CCN([C@H](C)C[C@@H](c2cc(F)cc(F)c2)C2CCN(S(C)(=O)=O)CC2)CC1 (single isomer, unassigned)
68	39	Cc1nnc(C(F)(F)F)n1C1CCN(CC[C@@H](c2cc(F)cc(F)c2)C2CCN(S(C)(=O)=O)CC2)CC1 [Comparator Compound A, 1-{(3R)-3-(3,5-difluorophenyl)-3-[1-(methylsulfonyl)piperidin-4-yl]propyl}-4-[3-methyl-5-(trifluoromethyl)-4H-1,2,4-triazol-4-yl]piperidine]
